These results are taken from patent US8637525B2, “Compounds for the reduction of beta-amyloid production” (Bristol-Myers Squibb Company, priority 2009, dated 2014).

Where two headings read alike, the source gives them in different places.

This experiment concerns Aβ1-42 production. Description: Cellular assay for inhibition of Aβ1-42 production (H4 APP751 SWE clone 8.20). In kind it is cell-based. The note with it: H4 APP751 SWE clone 8.20 cells, 19 h incubation. Put shortly: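 19 h cell treatment, 37 °C/5% CO2. Detection of secreted Aβ42 in the cell plate: 565 (Aβ42-specific, Wallac) and 26D6 (N-terminal, APC), overnight 4 °C. IC50 from fitted curves.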

Where [1] appears, read: 19 h, class symbols, read-out: Activity Rating (Aβ42 cellular IC50).
[2] abbreviates: 19 h, read-out: Activity Rating (Aβ42 cellular IC50), numeric value.
[3] abbreviates: class symbols, read-out: Activity Rating (Aβ42 cellular IC50).

Broadly, the IC50 is the midpoint of a concentration-inhibition curve. In the case of `Cc1ncnn1-c1ccc(Nc2nc3c(c(N(C)C)n2)COCC3c2ccc(Cl)cc2)cc1F` (stereo not drawn) [Example 67, 8-(4-chlorophenyl)-N^2-(3-fluoro-4-(5-methyl-1H-1,2,4-triazol-1-yl)phenyl)-N^4,N^4-dimethyl-7,8-dihydro-5H-pyrano[4,3-d]pyrimidine-2,4-diamine], the IC50 under setting [1] fell in the range of 0.01 to 0.1 µM. On to `CNc1nc(Nc2ccc(F)cc2)nc2c1CCC2c1ccccc1` (stereo not drawn) [Example 218, N2-(4-fluorophenyl)-N4-methyl-7-phenyl-6,7-dihydro-5H-cyclopenta[d]pyrimidine-2,4-diamine], for which, under setting [2], the IC50 was 3.7 µM.

In the case of `COc1cc(Nc2nc3c(c(N4CC(F)(F)C4)n2)CCC3c2ccc(F)cc2)ccc1-n1cnc(Cl)n1` (single isomer, unassigned) [Example 17B, N-(4-(3-chloro-1H-1,2,4-triazol-1-yl)-3-methoxyphenyl)-4-(3,3-difluoroazetidin-1-yl)-7-(4-fluorophenyl)-6,7-dihydro-5H-cyclopenta[d]pyrimidin-2-amine], the IC50 under setting [1] was in the range of 0.01 to 0.1 µM. As for `COc1cc(Nc2nc3c(c(N4CC(F)C4)n2)CCC3c2ccccc2)ccc1-n1cnc(Cl)c1` (stereo not drawn) [Example 182, N-(4-(4-chloro-1H-imidazol-1-yl)-3-methoxyphenyl)-4-(3-fluoroazetidin-1-yl)-7-phenyl-6,7-dihydro-5H-cyclopenta[d]pyrimidin-2-amine], the IC50 under setting [3] lay within 0.01 to 0.1 µM.

As to `CNc1nc(Nc2ccc(-n3cnc(C#N)c3)c(OC)c2)nc2c1CCC2c1ccccc1` (stereo not drawn) [Example 204B, 1-(2-methoxy-4-(4-(methylamino)-7-phenyl-6,7-dihydro-5H-cyclopenta[d]pyrimidin-2-ylamino)phenyl)-1H-imidazole-4-carbonitrile], the IC50 under setting [1] lay within 0.1 to 1 µM.

Regarding `CNc1nc(Nc2ccc(C3(C#N)CCCC3)cc2)nc2c1CCC2c1ccccc1` (stereo not drawn) [Example 244, 1-(4-(4-(methylamino)-7-phenyl-6,7-dihydro-5H-cyclopenta[d]pyrimidin-2-ylamino)phenyl)cyclopentanecarbonitrile], the IC50 under setting [1] is more than 1 µM. Consider `CNc1nc(Nc2ccc(-n3cnc(Cl)c3)c(OC)c2)nc2c1CCC2c1ccc(F)cc1` (stereo not drawn) [Example 11, N^2-(4-(4-Chloro-1H-imidazol-1-yl)-3-methoxyphenyl)-7-(4-fluorophenyl)-N^4-methyl-6,7-dihydro-5H-cyclopenta[d]pyrimidine-2,4-diamine], for which the IC50 under setting [1] was in the range of 0.0015 to 0.0099 µM. As for `CCNc1nc(Nc2ccc(-n3cnc(C)n3)c(F)c2)nc2c1CN(CC(F)F)CC2c1ccccc1` (stereo not drawn) [Example 195, 6-(2,2-difluoroethyl)-N4-ethyl-N2-(3-fluoro-4-(3-methyl-1H-1,2,4-triazol-1-yl)phenyl)-8-phenyl-5,6,7,8-tetrahydropyrido[4,3-d]pyrimidine-2,4-diamine], the IC50 under setting [2] was 0.017 µM.

Turning to `CNc1nc(Nc2ccc(-n3cnc(Cl)c3)c(OC)c2)nc2c1COCC2c1ccccc1` (single isomer, unassigned) [Example 51B, N^2-(4-(4-chloro-1H-imidazol-1-yl)-3-methoxyphenyl)-N^4-methyl-8-phenyl-7,8-dihydro-5H-pyrano[4,3-d]pyrimidine-2,4-diamine], under setting [3], the IC50 lay within 0.0015 to 0.0099 µM.

In the case of `COc1cc(Nc2nc3c(c(N4CC(F)(F)C4)n2)COC3c2ccc(F)cc2)ccc1-n1cnc(Cl)c1` (stereo not drawn) [Example 80A, N-(4-(4-chloro-1H-imidazol-1-yl)-3-methoxyphenyl)-4-(3,3-difluoroazetidin-1-yl)-7-(4-fluorophenyl)-5,7-dihydrofuro[3,4-d]pyrimidin-2-amine], the IC50 under setting [1] was 0.01 to 0.1 µM. Take `[2H]C([2H])([2H])Nc1nc(Nc2ccc(-n3cnc(Cl)c3)c(OC)c2)nc2c1CCC2c1ccccc1` (stereo not drawn) [Example 176, N^2-(4-(4-Chloro-1H-imidazol-1-yl)-3-methoxyphenyl)-N^4-trideuteromethyl-7-phenyl-6,7-dihydro-5H-cyclopenta[d]pyrimidine-2,4-diamine]: the IC50 under setting [1] lay within 0.0015 to 0.0099 µM. As to `CNc1nc(Nc2ccc3nc(C)sc3c2)nc2c1CCC2c1ccccc1` (stereo not drawn) [Example 255, N4-methyl-N2-(2-methylbenzo[d]thiazol-6-yl)-7-phenyl-6,7-dihydro-5H-cyclopenta[d]pyrimidine-2,4-diamine], under setting [1], the IC50 is more than 1 µM. `CNc1nc(Nc2ccc(-n3cnc(C)n3)c(OC)c2)nc2c1CC[C@@H]2c1cccc(OC)c1` [Example 272B, (R)—N2-(3-methoxy-4-(3-methyl-1H-1,2,4-triazol-1-yl)phenyl)-7-(3-methoxyphenyl)-N4-methyl-6,7-dihydro-5H-cyclopenta[d]pyrimidine-2,4-diamine]: the IC50 under setting [1] lay in the range of 0.01 to 0.1 µM. On the same count and under the same terms, as for `CNc1nc(Nc2ccc(C(C)=O)cc2)nc2c1CCC2c1ccccc1` (stereo not drawn) [Example 257, 1-(4-(4-(methylamino)-7-phenyl-6,7-dihydro-5H-cyclopenta[d]pyrimidin-2-ylamino)phenyl)ethanone], the figure is 0.01 to 0.1 µM.

With `CNc1nc(Nc2ccc(-n3cnc(Cl)c3)c(OC)c2)nc2c1COCC2c1ccc(Cl)cc1` (single isomer, unassigned) [Example 64A, N^2-(4-(4-chloro-1H-imidazol-1-yl)-3-methoxyphenyl)-8-(4-chlorophenyl)-N^4-methyl-7,8-dihydro-5H-pyrano[4,3-d]pyrimidine-2,4-diamine], the IC50 under setting [3] is 0.0015 to 0.0099 µM. Consider `CNc1nc(Nc2ccc(C(C)(C)C)cc2)nc2c1CCC2c1ccccc1` (stereo not drawn) [Example 234, N2-(4-tert-butylphenyl)-N4-methyl-7-phenyl-6,7-dihydro-5H-cyclopenta[d]pyrimidine-2,4-diamine], for which the IC50 under setting [1] is more than 1 µM. For the compound `CNc1nc(Nc2cncnc2)nc2c1CCC2c1ccccc1` (stereo not drawn) [Example 223, N4-methyl-7-phenyl-N2-(pyrimidin-5-yl)-6,7-dihydro-5H-cyclopenta[d]pyrimidine-2,4-diamine], under setting [2], the IC50 came out at 11 µM. The same measure, in the same setting: as for `CCNc1nc(Nc2ccc(-n3cnc(Cl)c3)c(OC)c2)nc2c1CN(CC(F)(F)F)CC2c1ccccc1` (stereo not drawn) [Example 196B], the figure is 0.054 µM. Turning to `COc1cc(Nc2nc3c(c(N4CC[C@@H](F)C4)n2)COC3c2ccc(F)cc2)ccc1-n1cnc(Cl)c1` (single isomer, unassigned) [Example 83B], the IC50 under setting [3] lay within 0.01 to 0.1 µM.

Take `COc1cc(Nc2nc3c(c(N4CC[C@@H](F)C4)n2)CCC3c2ccc(F)cc2)ccc1-n1cnc(Cl)c1` (stereo partly drawn) [Example 38, N-(4-(4-chloro-1H-imidazol-1-yl)-3-methoxyphenyl)-7-(4-fluorophenyl)-4-((R)-3-fluoropyrrolidin-1-yl)-6,7-dihydro-5H-cyclopenta[d]pyrimidin-2-amine]: the IC50 under setting [1] is 0.01 to 0.1 µM. Consider `CNc1nc(Nc2ccc(-n3cnc(Cl)c3)c(OC)c2)nc2c1CCC2c1ccc(Cl)cc1` (single isomer, unassigned) [Example 94B, N^2-(4-(4-chloro-1H-imidazol-1-yl)-3-methoxyphenyl)-7-(4-chlorophenyl)-N^4-methyl-6,7-dihydro-5H-cyclopenta[d]pyrimidine-2,4-diamine], for which the IC50 under setting [3] lay within 0.01 to 0.1 µM.

As for `CNc1nc(Nc2ccccc2C#N)nc2c1CCC2c1ccccc1` (stereo not drawn) [Example 228, 2-(4-(methylamino)-7-phenyl-6,7-dihydro-5H-cyclopenta[d]pyrimidin-2-ylamino)benzonitrile], the half-inhibitory concentration (IC50) under setting [1] is more than 1 µM. As to `CNc1nc(Nc2ccc(-n3cnc(C)n3)c(OC)c2)nc2c1CCC2c1ccc(F)cc1F` (single isomer, unassigned) [Example 193B, 7-(2,4-difluorophenyl)-N2-(3-methoxy-4-(3-methyl-1H-1,2,4-triazol-1-yl)phenyl)-N4-methyl-6,7-dihydro-5H-cyclopenta[d]pyrimidine-2,4-diamine], under setting [3], the IC50 is 0.01 to 0.1 µM. On the same count and under the same terms, as for `CCN(C)c1nc(Nc2ccc(-n3cnc(Cl)c3)c(OC)c2)nc2c1CCCC2c1ccccc1` (single isomer, unassigned) [Example 124A, N^2-(4-(4-Chloro-1H-imidazol-1-yl)-3-methoxyphenyl)-N^4-ethyl-N^4-methyl-8-phenyl-5,6,7,8-tetrahydroquinazoline-2,4-diamine], the figure is 0.0015 to 0.0099 µM. `CNc1nc(Nc2ccc(-n3cnc(C)n3)c(OC)c2)nc2c1CN(C)CC2c1ccc(F)cc1` (stereo not drawn) [Example 198B, 8-(4-fluorophenyl)-N2-(3-methoxy-4-(3-methyl-1H-1,2,4-triazol-1-yl)phenyl)-N4,6-dimethyl-5,6,7,8-tetrahydropyrido[4,3-d]pyrimidine-2,4-diamine]: the IC50 under setting [2] is 0.015 µM. Turning to `CNc1nc(Nc2ccc(C#N)cc2)nc2c1CCC2c1ccccc1` (stereo not drawn) [Example 225, 4-(4-(methylamino)-7-phenyl-6,7-dihydro-5H-cyclopenta[d]pyrimidin-2-ylamino)benzonitrile], the IC50 under setting [2] was found to be 0.018 µM. As to `COc1cc(Nc2nc3c(c(N4CC(C)(C#N)C4)n2)CCC3c2ccc(F)cc2)ccc1-n1cnc(Cl)c1` (stereo not drawn) [Example 186, 1-(2-(4-(4-chloro-1H-imidazol-1-yl)-3-methoxyphenylamino)-7-(4-fluorophenyl)-6,7-dihydro-5H-cyclopenta[d]pyrimidin-4-yl)-3-methylazetidine-3-carbonitrile], the IC50 under setting [1] fell in the range of 0.01 to 0.1 µM. In the case of `CNc1nc(Nc2ccc(-n3cnc(Cl)c3)c(OC)c2)nc2c1CCCC2(O)c1ccccc1` (stereo not drawn) [Example 178, 2-(4-(4-chloro-1H-imidazol-1-yl)-3-methoxyphenylamino)-4-(methylamino)-8-phenyl-5,6,7,8-tetrahydroquinazolin-8-ol], the IC50 under setting [1] fell in the range of 0.0015 to 0.0099 µM.

On to `CCNc1nc(Nc2ccc(-n3cnc(Cl)c3)c(OC)c2)nc2c1COCC2c1ccc(C#N)cc1` (stereo not drawn) [Example 121B, 4-(2-(4-(4-chloro-1H-imidazol-1-yl)-3-methoxyphenylamino)-4-(ethylamino)-7,8-dihydro-5H-pyrano[4,3-d]pyrimidin-8-yl)benzonitrile], for which, under setting [2], the IC50 was found to be 0.12 µM. Same read-out and setting: as for `CNc1nc(Nc2ccc(-n3cnc(C#N)c3)c(OC)c2)nc2c1CCC2c1ccccc1` (stereo not drawn) [Example 204, 1-(2-methoxy-4-(4-(methylamino)-7-phenyl-6,7-dihydro-5H-cyclopenta[d]pyrimidin-2-ylamino)phenyl)-1H-imidazole-4-carbonitrile], the figure is 0.019 µM.
